Among the data in ChEMBL document CHEMBL1949621, “Fluorocyclines. 1. 7-fluoro-9-pyrrolidinoacetamido-6-demethyl-6-deoxytetracycline: a potent, broad spectrum antibacterial agent” (J Med Chem, 2012) are MIC values, retold here.

Converted amounts (≈) assume the structure as drawn.

What all share (format): functional
One experiment deals with Acinetobacter baumannii. Nature of the experiment: Antibacterial activity against Acinetobacter baumannii ATCC 19606 110.
The subject of experiment [1] is Escherichia coli. Nature of the experiment: Antibacterial activity against tetracycline-resistant Escherichia coli 155.
The test system of experiment [2] is Klebsiella pneumoniae. Nature of the experiment: Antibacterial activity against tetracycline-resistant Klebsiella pneumoniae 153.
The test system of experiment [3] is Streptococcus pneumoniae. Nature of the experiment: microbe, parasite or virus in culture. Conditions: ATCC 106 49619.
Description: Antibacterial activity against Streptococcus pneumoniae ATCC 106 49619
Experiment [4] relates to Streptococcus pneumoniae. Nature of the experiment: Antibacterial activity against tetracycline-resistant Streptococcus pneumoniae 160.
Experiment [5] deals with Enterococcus faecalis. Nature of the experiment: Antibacterial activity against tetracycline-resistant Enterococcus faecalis 159.
Experiment [6] has as its system Staphylococcus aureus. Nature of the experiment: Antibacterial activity against tetracycline- and methicillin-resistant Staphylococcus aureus 161.
In experiment [7] the test system is Klebsiella pneumoniae. Nature of the experiment: Antibacterial activity against Klebsiella pneumoniae ATCC 109 13883.
The subject of experiment [8] is Staphylococcus aureus. Nature of the experiment: microbe, parasite or virus in culture. Conditions: 158.
For experiment [9], the system named is Enterococcus faecalis. Nature of the experiment: Antibacterial activity against Enterococcus faecalis ATCC 103 29212.
The next experiment deals with Pseudomonas aeruginosa. Nature of the experiment: Antibacterial activity against Pseudomonas aeruginosa ATCC 111 27853.
The test system of experiment [10] is Escherichia coli. Nature of the experiment: Antibacterial activity against Escherichia coli ATCC 107 25922.
The subject of experiment [11] is Staphylococcus aureus. Nature of the experiment: Antibacterial activity against Staphylococcus aureus ATCC 101 29213.
Another experiment concerns Enterobacter cloacae. Nature of the experiment: Antibacterial activity against Enterobacter cloacae ATCC 108 13047.

`CN(C)[C@@H]1C(O)=C(C(N)=O)C(=O)[C@@]2(O)C(O)=C3C(=O)c4c(O)c(NC(=O)CN5CCOCC5)cc(F)c4C[C@H]3C[C@@H]12`: the MIC with Acinetobacter baumannii is 8 µg/mL (≈ 13.9 µM); in the experiment on Escherichia coli [1], more than 32 µg/mL; in the experiment with Klebsiella pneumoniae [2], more than 32 µg/mL; against Streptococcus pneumoniae [3], 0.5 µg/mL (≈ 0.87 µM); with Streptococcus pneumoniae [4] it was 1 µg/mL (≈ 1.74 µM); against Enterococcus faecalis [5], 8 µg/mL (≈ 13.9 µM). In addition, the MIC against Staphylococcus aureus [6] is 8 µg/mL (≈ 13.9 µM); with Klebsiella pneumoniae [7] it was more than 32 µg/mL; in the experiment on Staphylococcus aureus [8], 8 µg/mL (≈ 13.9 µM); with Enterococcus faecalis [9], 8 µg/mL (≈ 13.9 µM); in the experiment on Pseudomonas aeruginosa, more than 32 µg/mL; against Escherichia coli [10], more than 32 µg/mL. The MIC was 4 µg/mL (≈ 6.96 µM) against Staphylococcus aureus [11] and more than 32 µg/mL in the experiment on Enterobacter cloacae.

Turning to `CC(C)NCC(=O)Nc1cc(F)c2c(c1O)C(=O)C1=C(O)[C@]3(O)C(=O)C(C(N)=O)=C(O)[C@@H](N(C)C)[C@@H]3C[C@@H]1C2`, the MIC against Acinetobacter baumannii was 1 µg/mL (≈ 1.83 µM); with Escherichia coli [1] it was 8 µg/mL (≈ 14.6 µM); against Klebsiella pneumoniae [2] it was 4 µg/mL (≈ 7.32 µM); in the experiment with Streptococcus pneumoniae [3], 0.0156 µg/mL (≈ 0.0285 µM); against Streptococcus pneumoniae [4], 0.0156 µg/mL (≈ 0.0285 µM); in the experiment on Enterococcus faecalis [5] it was 0.0625 µg/mL (≈ 0.114 µM). Moreover, the MIC in the experiment with Staphylococcus aureus [6] was 0.25 µg/mL (≈ 0.457 µM); against Klebsiella pneumoniae [7] it was 1 µg/mL (≈ 1.83 µM); in the experiment with Staphylococcus aureus [8], 0.5 µg/mL (≈ 0.915 µM); with Enterococcus faecalis [9] it was 0.0625 µg/mL (≈ 0.114 µM); with Pseudomonas aeruginosa it was 16 µg/mL (≈ 29.3 µM); against Escherichia coli [10], 0.5 µg/mL (≈ 0.915 µM). For the same compound, the MIC amounted to 0.125 µg/mL (≈ 0.229 µM) in the experiment with Staphylococcus aureus [11] and 1 µg/mL (≈ 1.83 µM) in the experiment with Enterobacter cloacae.

For `CN(C)CC(=O)Nc1cc(F)c2c(c1O)C(=O)C1=C(O)[C@]3(O)C(=O)C(C(N)=O)=C(O)[C@@H](N(C)C)[C@@H]3C[C@@H]1C2`, the MIC came out at 0.125 µg/mL (≈ 0.235 µM) in the experiment with Acinetobacter baumannii; 8 µg/mL (≈ 15 µM) against Escherichia coli [1]; 8 µg/mL (≈ 15 µM) against Klebsiella pneumoniae [2]; 0.0156 µg/mL (≈ 0.0293 µM) in the experiment on Streptococcus pneumoniae [3]; 0.0156 µg/mL (≈ 0.0293 µM) with Streptococcus pneumoniae [4]; 0.0312 µg/mL (≈ 0.0586 µM) against Enterococcus faecalis [5]. Also, the MIC against Staphylococcus aureus [6] amounted to 0.125 µg/mL (≈ 0.235 µM); in the experiment with Klebsiella pneumoniae [7] it was 0.5 µg/mL (≈ 0.939 µM); in the experiment with Staphylococcus aureus [8], 0.25 µg/mL (≈ 0.469 µM); in the experiment on Enterococcus faecalis [9] it was 0.0156 µg/mL (≈ 0.0293 µM); with Pseudomonas aeruginosa it was 8 µg/mL (≈ 15 µM); against Escherichia coli [10], 0.125 µg/mL (≈ 0.235 µM). The MIC in the experiment on Staphylococcus aureus [11] turned out to be 0.0156 µg/mL (≈ 0.0293 µM); in the experiment on Enterobacter cloacae it was 1 µg/mL (≈ 1.88 µM).

As to `CN(C)[C@@H]1C(O)=C(C(N)=O)C(=O)[C@@]2(O)C(O)=C3C(=O)c4c(O)c(NC(=O)CN5CCC5)cc(F)c4C[C@H]3C[C@@H]12`, the MIC in the experiment on Acinetobacter baumannii turned out to be 2 µg/mL (≈ 3.67 µM); with Escherichia coli [1], 8 µg/mL (≈ 14.7 µM); in the experiment on Klebsiella pneumoniae [2] it was 4 µg/mL (≈ 7.35 µM); in the experiment with Streptococcus pneumoniae [3] it was 0.0156 µg/mL (≈ 0.0286 µM); against Streptococcus pneumoniae [4], 0.0156 µg/mL (≈ 0.0286 µM); in the experiment with Enterococcus faecalis [5], 0.125 µg/mL (≈ 0.23 µM). Besides, the MIC in the experiment with Staphylococcus aureus [6] was 0.25 µg/mL (≈ 0.459 µM); against Klebsiella pneumoniae [7] it was 1 µg/mL (≈ 1.84 µM); in the experiment with Staphylococcus aureus [8] it was 0.5 µg/mL (≈ 0.918 µM); against Enterococcus faecalis [9] it was 0.0625 µg/mL (≈ 0.115 µM); against Pseudomonas aeruginosa, 8 µg/mL (≈ 14.7 µM); with Escherichia coli [10], 0.25 µg/mL (≈ 0.459 µM). In addition, the MIC turned out to be 0.125 µg/mL (≈ 0.23 µM) in the experiment with Staphylococcus aureus [11] and 1 µg/mL (≈ 1.84 µM) against Enterobacter cloacae.
